The term IC50 denotes the point on the concentration scale where inhibition reaches its midpoint. What is called Kd is a measure of binding affinity in units of concentration. A high value points to weaker binding.

Each structure is given as a SMILES string.

The record followed here is patent publication US12545699B2, “Bivalent LECA inhibitors targeting biofilm formation of Pseudomonas aeruginosa” (HELMHOLTZ-ZENTRUM FÜR INFEKTIONSFORSCHUNG GMBH, priority 2019, dated 2026).

Assay [1] has as its target T1, LecA (Pseudomonas aeruginosa, UniProt Q05097).
T1 construct: made in house
Put plainly: competitive binding assay based on fluorescence polarisation (FP). The procedure:
Binding of ligands to LecA was evaluated in competitive assay based on fluorescence polarisation.
For orientation: Polarisation of emitted light reports the rotation of a fluorescent probe.

Assay [2] concerns the target T1, LecA. Put plainly: surface plasmon resonance (SPR) direct binding to immobilised LecA. Here is the method:
All experiments were performed on a BIACORE X100 instrument (GE Healthcare) at 25° C. and a flow rate of 10 μL min^−1. […] LecA was dissolved in 10 mM sodium acetate pH 4.5 (100 μg mL^−1) and injected over the activated chip surface on channel 2 (contact time of 540 s) until the response of ˜4000 RU was reached. Excess free amine groups were capped with an injection of 1 M ethanolamine (contact time 540 s). Bivalent compounds were dissolved in 100% DMSO and subsequently diluted to required concentrations in a running buffer (10 mM phosphate buffer pH 7.4, 2.7 mM KCl, 137 mM NaCl, 100 μM CaCl2, 0.05% Tween 20, 5% DMSO). The bivalent analytes were subjected to single-cycle kinetics analyses (contact time of 120 s and dissociation time of 120 s) consisting of injections of the analytes at 0, 10, 50, 100, and 200 nM over the immobilised-LecA. The chip surface was regenerated by 5× injections of 100 μM 4-nitrophenyl-β-D-galactose (contact time of 120 s). KD determination was performed using BIACORE X100 evaluation software (version 2.0) by applying 1:1 binding model to fit the experimental data. • [1] H. E. Gottlieb, V. Kotlyar, A. Nudelman, J. Org. Chem. 1997, 62, 7512-7515. • [2] M. Seligman, J. Biol. Chem. 1952, 195, 239-249. • [3] S. T. Xue, W. Y. He, L. L. Ma, H. Q. Wang, B. Wang, G. H. Zheng, X. Y. Ji, T. Zhang, Y. H. Li, J. D. Jiang, et al., Molecules 2013, 18, 3789-3805. • [4] Y. Li, H. Mo, G. Lian, B. Yu, Carbohydr. Res. 2012, 363, 14-22. • [5] F. Yang, F. Xie, Y. Zhang, Y. Xia, W. Liu, F. Jiang, C. Lam, Y. Qiao, D. Xie, J. Li, et al., Bioorganic Med. Chem. Lett. 2017, 27, 2166-2170. Synthesis Schemes and Results of Biophysical Assays
Background: In SPR one partner is held on a chip, and binding of the other changes the refractive index at the surface.

The target in assay [3] is T1, LecA. In words: isothermal titration microcalorimetry (ITC). In kind it is binding. The conditions noted are these: 25° C. The procedure:
Expression and purification of LecA as well as competitive binding by fluorescence polarization was performed as described by Joachim et al. (Org. Biomol. Chem. 2016). Microcalorimetry was performed using an ITC200 (GE Healthcare) at highest possible LecA concentration (typically 200-400 μM) in the cell and titration of ligand in the same buffer at 25° C.

The mark [4] stands for this setting: ITC Kd, Table 1, TBS/Ca2+ buffer.
[5] abbreviates: Table 5, ITC, 100 μM LecA, 0.5 mM 35, TBS/Ca2+ buffer.
Setting [6] is: Table 5, ITC, 110 μM LecA, 1 mM 35, TBS/Ca2+ buffer.

T1 sequence (Q05097 whole entry): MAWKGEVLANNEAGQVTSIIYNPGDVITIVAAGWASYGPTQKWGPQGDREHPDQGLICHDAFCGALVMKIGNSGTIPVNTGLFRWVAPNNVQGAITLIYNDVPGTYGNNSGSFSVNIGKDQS

`COc1ccc(C=NNC(=O)c2cccc(OC3OC(CO)C(O)C(O)C3O)c2)cc1` (stereo not drawn) [Compound F6m] displayed an IC50 in assay [1] (FP IC50, Table 1, 20 μM LecA, 10 nM reporter ligand 8, TBS/Ca2+ buffer with 25% DMSO (**)) of 21.6 ± 4.5 µM. Besides, the Kd is 4.9 ± 0.1 µM in assay [2] and 2.4 ± 1.33 µM in assay [3] (setting [4]).
In assay [1] (FP IC50, Table 1, 20 μM LecA, 10 nM reporter ligand 8, TBS/Ca2+ buffer with 4% DMSO (*)), `COc1ccc(C=NNC(=O)c2ccc(OC3OC(CO)C(O)C(O)C3O)cc2)cc1` (stereo not drawn) [Compound F6p] came in with an IC50 of 23.1 µM. In addition, the Kd in assay [2] is 4.8 ± 2.1 µM; in assay [3] (setting [4]), 6.11 ± 0.48 µM.
Consider `N.N.O=C(CCc1ccc(O[C@@H]2OC(CO)[C@H](O)C(O)C2O)cc1)Nc1ccc(CCc2ccc(NC(=O)CCc3ccc(O[C@@H]4OC(CO)[C@H](O)C(O)C4O)cc3)cc2S(=O)(=O)O)c(S(=O)(=O)O)c1` (stereo partly drawn) [Compound 35], for which the IC50 in assay [1] (IC50, Table 3, TBS/Ca2+ buffer in presence of 25% DMSO) worked out at 4 ± 2.4 µM. The Kd in assay [3] (Kd, Table 5, ITC, 100 μM LecA, 0.5 mM 35, TBS/Ca2+ buffer) came to 0.081 µM. For the same molecule, binding in assay [3] (Kd, Table 5, ITC, 110 μM LecA, 1 mM 35, TBS/Ca2+ buffer) was characterised by a dissociation constant (Kd) of 0.146 µM. In assay [3] (setting [5]), the “N (ITC stoichiometry)” value came out at 0.55, the ΔH was -19.2 kcal/mol and the ΔS was −31.8 cal/mol/deg. Besides, in assay [3] (setting [6]), the “N (ITC stoichiometry)” value amounted to 0.54, the ΔH was -19.5 kcal/mol and the ΔS is on record as −34.3 cal/mol/deg.
